Test results from ChEMBL document CHEMBL1909294, “Translating clinical findings into knowledge in drug safety evaluation--drug induced liver injury prediction system (DILIps)” (PLoS Comput Biol, 2011).

How the values were obtained:
Hepatotoxicity [1] = system: Hepatotoxicity;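 as to HepSE Combined Scores: combined hepatic side effect score as listed in the training data of the Drug Induced Liver Injury Prediction System (DILIps)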;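 as to HepSE cholecystitis: Cholecystitis-related hepatic side effect score drawn from the DILIps (drug-induced liver injury prediction) training data set; call rule not given here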;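 as to HepSE cholelithiasis: hepatic side effect score for cholelithiasis, drawn from the DILIps training data for predicting drug-induced liver injury; call rule not given here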; as to HepSE hepatic failure: call rule not given here;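 as to HepSE hepatitis: Hepatitis-related hepatic side effect score taken from the training data of DILIps, a prediction system for drug-induced liver injury; call rule not given here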;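 as to HepSE hepatomegaly: hepatic side effect score for hepatomegaly, taken from the training set of the DILIps drug-induced liver injury prediction system; call rule not given here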;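 as to HepSE liver function tests abnormal: hepatic side effect score taken from the DILIps (drug-induced liver injury prediction system) training data, here covering abnormal liver function test findings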
Hepatotoxicity [2] = system: Hepatotoxicity; remark: listed apart in the source;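 as to HepSE Combined Scores: combined hepatic side effect score as listed in the training data of the Drug Induced Liver Injury Prediction System (DILIps)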;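 as to HepSE cholelithiasis: hepatic side effect score for cholelithiasis, drawn from the DILIps training data for predicting drug-induced liver injury; call rule not given here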; as to HepSE hepatic failure: call rule not given here;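 as to HepSE hepatitis: Hepatitis-related hepatic side effect score taken from the training data of DILIps, a prediction system for drug-induced liver injury; call rule not given here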;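 as to HepSE hepatomegaly: hepatic side effect score for hepatomegaly, taken from the training set of the DILIps drug-induced liver injury prediction system; call rule not given here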;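 as to HepSE liver function tests abnormal: hepatic side effect score taken from the DILIps (drug-induced liver injury prediction system) training data, here covering abnormal liver function test findings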
Hepatotoxicity [3] = system: Hepatotoxicity; remark: listed apart in the source;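 as to HepSE Combined Scores: combined hepatic side effect score as listed in the training data of the Drug Induced Liver Injury Prediction System (DILIps)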;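 as to HepSE cholelithiasis: hepatic side effect score for cholelithiasis, drawn from the DILIps training data for predicting drug-induced liver injury; call rule not given here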; as to HepSE hepatic failure: call rule not given here;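 as to HepSE hepatitis: Hepatitis-related hepatic side effect score taken from the training data of DILIps, a prediction system for drug-induced liver injury; call rule not given here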;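 as to HepSE hepatomegaly: hepatic side effect score for hepatomegaly, taken from the training set of the DILIps drug-induced liver injury prediction system; call rule not given here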;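 as to HepSE liver function tests abnormal: hepatic side effect score taken from the DILIps (drug-induced liver injury prediction system) training data, here covering abnormal liver function test findings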
Hepatotoxicity [4] = system: Hepatotoxicity; remark: listed apart in the source;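 as to HepSE Combined Scores: combined hepatic side effect score as listed in the training data of the Drug Induced Liver Injury Prediction System (DILIps)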;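 as to HepSE cholelithiasis: hepatic side effect score for cholelithiasis, drawn from the DILIps training data for predicting drug-induced liver injury; call rule not given here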; as to HepSE hepatic failure: call rule not given here;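 as to HepSE hepatitis: Hepatitis-related hepatic side effect score taken from the training data of DILIps, a prediction system for drug-induced liver injury; call rule not given here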;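 as to HepSE hepatomegaly: hepatic side effect score for hepatomegaly, taken from the training set of the DILIps drug-induced liver injury prediction system; call rule not given here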;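 as to HepSE liver function tests abnormal: hepatic side effect score taken from the DILIps (drug-induced liver injury prediction system) training data, here covering abnormal liver function test findings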
Hepatotoxicity [5] = system: Hepatotoxicity; remark: listed apart in the source; as to HepSE hepatic failure: call rule not given here
Hepatotoxicity [6] = system: Hepatotoxicity; remark: listed apart in the source; as to HepSE hepatic failure: call rule not given here
Hepatotoxicity [7] = system: Hepatotoxicity; remark: listed apart in the source
Hepatotoxicity [8] = system: Hepatotoxicity; remark: listed apart in the source
Hepatotoxicity [9] = system: Hepatotoxicity; remark: listed apart in the source
Hepatotoxicity [10] = system: Hepatotoxicity; remark: listed apart in the source
Hepatotoxicity [11] = system: Hepatotoxicity; remark: listed apart in the source
Hepatotoxicity [12] = system: Hepatotoxicity; remark: listed apart in the source
Hepatotoxicity [13] = system: Hepatotoxicity; remark: listed apart in the source
Hepatotoxicity [14] = system: Hepatotoxicity; remark: listed apart in the source

| SMILES | HepSE_Combined Scores (Hepatotoxicity [1]) | HepSE_hepatitis (Hepatotoxicity [2]) | HepSE_hepatic necrosis (Hepatotoxicity [3]) | HepSE_hepatomegaly (Hepatotoxicity [4]) | HepSE_bilirubinemia (Hepatotoxicity [5]) | HepSE_hepatic failure (Hepatotoxicity [6]) | HepSE_liver function tests abnormal (Hepatotoxicity [7]) | HepSE_cholelithiasis (Hepatotoxicity [8]) | HepSE_liver fatty (Hepatotoxicity [9]) | HepSE_cholecystitis (Hepatotoxicity [10]) | HepSE_cirrhosis (Hepatotoxicity [11]) | HepSE_jaundice (Hepatotoxicity [12]) | HepSE_elevated liver function tests (Hepatotoxicity [13]) | HepSE_liver disease (Hepatotoxicity [14]) | also measured |
| --- | --- | --- | --- | --- | --- | --- | --- | --- | --- | --- | --- | --- | --- | --- | --- |
| COCCCOc1ccnc(C[S+]([O-])c2nc3ccccc3[nH]2)c1C (configuration not stated) [RABEPRAZOLE] | 7 | 1 | 0 | 0 | 0 | 0 | 1 | 1 | 1 | 1 | 1 | 1 | 0 | 0 | – |
| O=C(c1ccc(OCCN2CCCCC2)cc1)c1c(-c2ccc(O)cc2)sc2cc(O)ccc12 [RALOXIFENE] | 1 | 0 | 0 | 0 | 0 | 0 | 0 | 1 | 0 | 0 | 0 | 0 | 0 | 0 | – |
| Cc1nc2ccc(CN(C)c3ccc(C(=O)N[C@@H](CCC(=O)O)C(=O)O)s3)cc2c(=O)[nH]1 [RALTITREXED] | 1 | 0 | 0 | 0 | 0 | 1 | 0 | 0 | 0 | 0 | 0 | 0 | 0 | 0 | – |
| CNC(=C[N+](=O)[O-])NCCSCc1ccc(CN(C)C)o1 [RANITIDINE] | 4 | 1 | 0 | 0 | 0 | 1 | 0 | 0 | 0 | 0 | 0 | 1 | 0 | 1 | – |
| COc1ccccc1OCC(O)CN1CCN(CC(=O)Nc2c(C)cccc2C)CC1 (configuration not stated) [RANOLAZINE] | 0 | 0 | 0 | 0 | 0 | 0 | 0 | 0 | 0 | 0 | 0 | 0 | 0 | 0 | – |
| C#CCN[C@@H]1CCc2ccccc21 [RASAGILINE] | – | – | – | – | – | – | – | – | – | – | – | – | – | – | HepSE_Combined Scores (Hepatotoxicity [1]; Liver): 2; HepSE_hepatitis (Hepatotoxicity [2]; Liver): 0; HepSE_hepatic necrosis (Hepatotoxicity [3]; Liver): 0; HepSE_hepatomegaly (Hepatotoxicity [4]; Liver): 0; HepSE_bilirubinemia (Hepatotoxicity [5]; Liver): 0; HepSE_hepatic failure (Hepatotoxicity [6]; Liver): 0; HepSE_liver function tests abnormal (Hepatotoxicity [7]; Liver): 1; HepSE_cholelithiasis (Hepatotoxicity [8]; Liver): 0; HepSE_liver fatty (Hepatotoxicity [9]; Liver): 0; HepSE_cholecystitis (Hepatotoxicity [10]; Liver): 0; HepSE_cirrhosis (Hepatotoxicity [11]; Liver): 0; HepSE_jaundice (Hepatotoxicity [12]; Liver): 1; HepSE_elevated liver function tests (Hepatotoxicity [13]; Liver): 0; HepSE_liver disease (Hepatotoxicity [14]; Liver): 0 |
| CCOc1cc(CC(=O)N[C@@H](CC(C)C)c2ccccc2N2CCCCC2)ccc1C(=O)O [REPAGLINIDE] | 2 | 1 | 0 | 0 | 0 | 0 | 0 | 0 | 0 | 0 | 0 | 1 | 0 | 0 | – |
| COC(=O)[C@H]1[C@H]2C[C@@H]3c4[nH]c5cc(OC)ccc5c4CCN3C[C@H]2C[C@@H](OC(=O)c2cc(OC)c(OC)c(OC)c2)[C@@H]1OC [RESERPINE] | 0 | 0 | 0 | 0 | 0 | 0 | 0 | 0 | 0 | 0 | 0 | 0 | 0 | 0 | – |
